Results published in patent publication US8236792B2, “Substituted pyrrolidine amides as modulators of the histamine H3 receptor” (Janssen Pharmaceutica NV, priority 2008, dated 2012).
Like-named read-outs stand apart in the source and are kept apart here. One block for each molecule: values may come before it.

How the values were obtained:
cloned rat H3 receptors = target: T1, cloned rat H3 receptors (Rattus norvegicus, UniProt Q9QYN8); assay: H3 Receptor Binding (Rat)
T1 construct: expressed in transfected cells
T1 sequence (Q9QYN8 whole entry): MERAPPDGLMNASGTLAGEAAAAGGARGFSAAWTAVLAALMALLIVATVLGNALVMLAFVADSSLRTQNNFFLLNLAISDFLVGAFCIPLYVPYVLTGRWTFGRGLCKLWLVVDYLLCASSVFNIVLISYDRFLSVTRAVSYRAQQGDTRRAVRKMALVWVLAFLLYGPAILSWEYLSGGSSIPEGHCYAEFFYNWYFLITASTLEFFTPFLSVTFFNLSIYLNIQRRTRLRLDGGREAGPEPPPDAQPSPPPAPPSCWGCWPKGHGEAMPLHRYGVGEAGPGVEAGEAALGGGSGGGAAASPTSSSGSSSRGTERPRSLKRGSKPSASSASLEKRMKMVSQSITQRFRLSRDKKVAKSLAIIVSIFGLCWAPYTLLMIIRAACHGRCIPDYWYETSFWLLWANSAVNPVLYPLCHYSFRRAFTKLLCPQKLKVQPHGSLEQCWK
Description: Compounds were tested for binding to cloned rat H3 receptors, stably expressed in SK-N-MC cells.
Compounds were tested in their free base or hydrochloride salt forms.

rat H3 receptor = target: T2, rat H3 receptor (Rattus norvegicus, UniProt Q9QYN8); assay: Cyclic AMP Accumulation (rat H3 reporter subline); type: cell-based
T2 construct: expressed in transfected cells; host or cells: SK-N-MC sublines with a reporter construct
T2 sequence (Q9QYN8 whole entry): as above
Description: (§1) Sublines of SK-N-MC cells were created that expressed a reporter construct and either the human or rat H3 receptor. […] Compounds were tested in their free base or trifluoroacetate salt forms.

[1] = target: T3, cloned human H3 receptors (Homo sapiens, UniProt Q9Y5N1); assay: H3 Receptor Binding (Human) Method 1; settings: receptor stably expressed in SK-N-MC cells, free base forms, average of results
T3 construct: expressed in transfected cells
T3 sequence (Q9Y5N1 whole entry): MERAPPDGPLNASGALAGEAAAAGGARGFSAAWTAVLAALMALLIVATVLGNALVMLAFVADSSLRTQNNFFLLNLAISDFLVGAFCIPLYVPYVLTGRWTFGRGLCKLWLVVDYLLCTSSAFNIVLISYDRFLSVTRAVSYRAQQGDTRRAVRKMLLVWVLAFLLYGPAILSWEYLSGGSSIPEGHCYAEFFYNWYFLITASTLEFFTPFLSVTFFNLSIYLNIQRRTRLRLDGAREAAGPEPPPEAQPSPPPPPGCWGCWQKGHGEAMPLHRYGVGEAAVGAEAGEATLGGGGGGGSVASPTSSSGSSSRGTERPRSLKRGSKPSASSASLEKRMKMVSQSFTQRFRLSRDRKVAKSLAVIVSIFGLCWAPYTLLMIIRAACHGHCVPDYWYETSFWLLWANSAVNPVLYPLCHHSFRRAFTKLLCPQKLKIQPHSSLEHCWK

human H3 receptor [2] = target: T4, human H3 receptor (Homo sapiens, UniProt Q9Y5N1); assay: H3 Receptor Binding (Human) Method 2, [125I]-iodoproxyfan competitive radioligand binding; parameters: expressed in transfected cells
T4 sequence (Q9Y5N1 whole entry): as above

human H3 receptor [3] = target: T4, human H3 receptor; assay: Cyclic AMP Accumulation (human H3 reporter subline); type: cell-based; parameters: expressed in transfected cells; host or cells: SK-N-MC sublines with a reporter construct; settings: SK-N-MC subline with reporter construct and human H3 receptor; free base or trifluoroacetate salt; average
Description: as §1

[4] = SK-N-MC subline with reporter construct and rat H3 receptor, free base or trifluoroacetate salt, average, read-out: Rat pA2 (converted)
[5] = receptor stably expressed in SK-N-MC cells, free base or hydrochloride salt, average of results, read-out: Rat H3 Ki
[6] = SK-N-MC subline with reporter construct and rat H3 receptor, free base or trifluoroacetate salt, average

- Ki (cloned rat H3 receptors; [5]): 130 nM
SMILES: O=C([C@@H]1C[C@@H](Oc2cccc(Cl)c2)CN1)N1CCCN(C2CCC2)CC1 [Example 88, (2S,4R)-4-(3-Chloro-phenoxy)-2-(4-cyclobutyl-[1,4]diazepane-1-carbonyl)-pyrrolidine]

- Ki [1]: 12 nM
- Ki (human H3 receptor [2]; read-out: Human H3 Ki): 4 nM
SMILES: CC(C)(C)OC(=O)N1C[C@@H](Oc2cccc(Cl)c2)C[C@@H]1C(=O)N1CCCN(C2CCC2)CC1 [Example 20, (2R,4S)-4-(3-Chloro-phenoxy)-2-(4-cyclobutyl-[1,4]diazepane-1-carbonyl)-pyrrolidine-1-carboxylic acid tert-butyl ester]

- Ki (cloned rat H3 receptors; [5]): 12 nM
- Ki (human H3 receptor [2]; read-out: Human H3 Ki): 1 nM
SMILES: CC(=O)N1C[C@@H](Oc2ccc(Cl)c(C)c2)C[C@@H]1C(=O)N1CCCN(C2CCC2)CC1 [Example 122, (2R,4S)-1-[4-(4-Chloro-3-methyl-phenoxy)-2-(4-cyclobutyl-[1,4]diazepane-1-carbonyl)-pyrrolidin-1-yl]-ethanone]

- Ki (cloned rat H3 receptors; [5]): 15 nM
- Ki (human H3 receptor [2]; read-out: Human H3 Ki): 2 nM
SMILES: CSc1ccc(O[C@H]2C[C@H](C(=O)N3CCCN(C4CCC4)CC3)N(C(C)=O)C2)cc1 [Example 121, (2R,4S)-1-[2-(4-Cyclobutyl-[1,4]diazepane-1-carbonyl)-4-(4-methylsulfanyl-phenoxy)-pyrrolidin-1-yl]-ethanone]

- Ki [1]: 12 nM
- Ki (human H3 receptor [2]; read-out: Human H3 Ki): 3 nM
SMILES: CC(C)(C)OC(=O)N1C[C@@H](Oc2ccc(Cl)cc2)C[C@@H]1C(=O)N1CCCN(C2CCC2)CC1 [Example 21, (2R,4S)-4-(4-Chloro-phenoxy)-2-(4-cyclobutyl-[1,4]diazepane-1-carbonyl)-pyrrolidine-1-carboxylic acid tert-butyl ester]

- Human pA2 (human H3 receptor [3]): 8.65
- Kb (rat H3 receptor; [4]): 21.9 nM
- Ki (human H3 receptor [2]; read-out: Human H3 Ki): 5 nM
SMILES: O=C([C@H]1C[C@H](Oc2ccsc2)CN1)N1CCCN(C2CCC2)CC1 [Example 102, (2R,4S)-2-(4-Cyclobutyl-[1,4]diazepane-1-carbonyl)-4-(thiophen-3-yloxy)-pyrrolidine]

- Ki (cloned rat H3 receptors; [5]): 30 nM
- Kb (rat H3 receptor; [4]): 1.62 nM
SMILES: CC(=O)N1C[C@@H](Oc2ccc(F)cc2)C[C@@H]1C(=O)N1CCCN(C2CCC2)CC1 [Example 120, (2R,4S)-1-[2-(4-Cyclobutyl-[1,4]diazepane-1-carbonyl)-4-(4-fluoro-phenoxy)-pyrrolidin-1-yl]-ethanone]

- Ki [1]: 284 nM
SMILES: O=C([C@@H]1C[C@H](Oc2ccc(F)cc2)CN1)N1CCN(C2CCC2)CC1 [Example 63, (2S,4S)-2-(4-Cyclobutyl-piperazine-1-carbonyl)-4-(4-fluoro-phenoxy)-pyrrolidine]

- Ki (cloned rat H3 receptors; [5]): 8 nM
- Ki (human H3 receptor [2]; read-out: Human H3 Ki): 4 nM
SMILES: O=C([C@H]1C[C@H](OCc2cccc(F)c2)CN1)N1CCCN(C2CCC2)CC1 [Example 152, (2R,4S)-2-(4-Cyclobutyl-[1,4]diazepane-1-carbonyl)-4-(3-fluoro-benzyloxy)-pyrrolidine]

- Ki (cloned rat H3 receptors; [5]): 13 nM
- Ki (human H3 receptor [2]; read-out: Human H3 Ki): 3 nM
SMILES: O=C([C@H]1C[C@H](OCc2ccc(F)cc2)CN1)N1CCCN(C2CCC2)CC1 [Example 153, (2R,4S)-2-(4-Cyclobutyl-[1,4]diazepane-1-carbonyl)-4-(4-fluoro-benzyloxy)-pyrrolidine]

- Ki [1]: 89 nM
SMILES: CSc1ccc(O[C@@H]2CN[C@H](C(=O)N3CCCN(C4CCC4)CC3)C2)cc1 [Example 97, (2S,4S)-2-(4-Cyclobutyl-[1,4]diazepane-1-carbonyl)-4-(4-methylsulfanyl-phenoxy)-pyrrolidine]

- Ki [1]: 523 nM
SMILES: CN1C[C@@H](Oc2ccc(F)cc2)C[C@H]1C(=O)N1CCN(C2CCC2)CC1 [Example 107, (2S,4S)-1-Methyl-2-(4-cyclobutyl-piperazine-1-carbonyl)-4-(4-fluoro-phenoxy)-pyrrolidine]

- Ki (cloned rat H3 receptors; [5]): 232 nM
- Ki (human H3 receptor [2]; read-out: Human H3 Ki): 5 nM
SMILES: Cc1cccc(O[C@H]2C[C@H](C(=O)N3CCCN(C4CCC4)CC3)N(C(=O)OC(C)(C)C)C2)c1 [Example 27, (2R,4S)-2-(4-Cyclobutyl-[1,4]diazepane-1-carbonyl)-4-m-tolyloxy-pyrrolidine-1-carboxylic acid tert-butyl ester]

- Ki [1]: 33 nM
SMILES: CC(C)(C)OC(=O)N1CC(Oc2ccc(Cl)cc2)C[C@H]1C(=O)N1CCCN(C2CCC2)CC1 (stereo partly drawn) [Example 43, (2S)-4-(4-Chloro-phenoxy)-2-(4-cyclobutyl-[1,4]diazepane-1-carbonyl)-pyrrolidine-1-carboxylic acid tert-butyl ester]

- Ki [1]: 3 nM
SMILES: CC(C)(C)OC(=O)N1C[C@@H](Oc2cccc(C#N)c2)C[C@@H]1C(=O)N1CCCN(C2CCC2)CC1 [Example 22, (2R,4S)-4-(3-Cyano-phenoxy)-2-(4-cyclobutyl-[1,4]diazepane-1-carbonyl)-pyrrolidine-1-carboxylic acid tert-butyl ester]

- Ki [1]: 16 nM
SMILES: CC(C)O[C@@H]1C[C@@H](C(=O)N2CCCN(C3CCC3)CC2)N(C(=O)OC(C)(C)C)C1 [Example 59, (2S,4R)-2-(4-Cyclobutyl-[1,4]diazepane-1-carbonyl)-4-isopropoxy-pyrrolidine-1-carboxylic acid tert-butyl ester]

- Ki [1]: 149 nM
SMILES: O=C([C@H]1C[C@@H](OCc2cccc(F)c2)CN1)N1CCCN(C2CCC2)CC1 [Example 154, (2R,4R)-2-(4-Cyclobutyl-[1,4]diazepane-1-carbonyl)-4-(3-fluoro-benzyloxy)-pyrrolidine]

- Human pA2 (human H3 receptor [3]): 9.28
- Kb (rat H3 receptor; [4]): 8.71 nM
- Ki (human H3 receptor [2]; read-out: Human H3 Ki): 3 nM
SMILES: CC(=O)N1C[C@@H](Oc2ccsc2)C[C@@H]1C(=O)N1CCCN(C2CCC2)CC1 [Example 134, (2R,4S)-1-[2-(4-Cyclobutyl-[1,4]diazepane-1-carbonyl)-4-(thiophen-3-yloxy)-pyrrolidin-1-yl]-ethanone]

Second part, the molecule before the results:

SMILES: O=C([C@H]1C[C@H](Oc2cccc(F)c2)CN1)N1CCCN(C2CCC2)CC1 [Example 65, (2R,4S)-4-(3-Fluoro-phenoxy)-2-(4-cyclobutyl-[1,4]diazepane-1-carbonyl)-pyrrolidine]
- Ki (cloned rat H3 receptors): 12 nM
- Kb (rat H3 receptor; [4]): 7.41 nM

SMILES: CC(=O)N1C[C@@H](Oc2cccc(F)c2)C[C@@H]1C(=O)N1CCCN(C2CCC2)CC1 [Example 131, (2R,4S)-1-[2-(4-Cyclobutyl-[1,4]diazepane-1-carbonyl)-4-(3-fluoro-phenoxy)-pyrrolidin-1-yl]-ethanone]
- Ki (cloned rat H3 receptors): 17 nM
- Rat pA2 (rat H3 receptor; [6]): 8.22
- Ki (human H3 receptor [2]): 2 nM

SMILES: O=C([C@H]1C[C@H](Oc2ccc(F)cc2)CN1)N1CCCN(C2CCCC2)CC1 [Example 82, (2R,4S)-2-(4-Cyclopentyl-[1,4]diazepane-1-carbonyl)-4-(4-fluoro-phenoxy)-pyrrolidine]
- Ki (cloned rat H3 receptors; [5]): 18 nM
- Rat pA2 (rat H3 receptor; [6]): 8.21

SMILES: CC(C)(C)OC(=O)N1C[C@@H](Oc2ccc(C#N)cc2)C[C@@H]1C(=O)N1CCCN(C2CCC2)CC1 [Example 16, (2R,4S)-4-(4-Cyano-phenoxy)-2-(4-cyclobutyl-[1,4]diazepane-1-carbonyl)-pyrrolidine-1-carboxylic acid tert-butyl ester]
- Ki [1]: 3 nM
- Ki (human H3 receptor [2]; read-out: Human H3 Ki): 2 nM

SMILES: N#Cc1ccc(O[C@@H]2CN[C@@H](C(=O)N3CCCN(C4CCC4)CC3)C2)cc1 [Example 64, (3S,5R)-4-[5-(4-Cyclobutyl-[1,4]diazepane-1-carbonyl)-pyrrolidin-3-yloxy]-benzonitrile]
- Ki (cloned rat H3 receptors): 466 nM
- Kb (rat H3 receptor; [4]): 12.9 nM

SMILES: O=C([C@H]1C[C@H](Oc2ccc(Cl)cc2)CN1)N1CCCN(C2CCC2)CC1 [Example 69, (2R,4S)-4-(4-Chloro-phenoxy)-2-(4-cyclobutyl-[1,4]diazepane-1-carbonyl)-pyrrolidine]
- Ki (cloned rat H3 receptors; [5]): 18 nM
- Rat pA2 (rat H3 receptor; [6]): 8.30

SMILES: CN1C[C@@H](Oc2ccc(F)cc2)C[C@@H]1C(=O)N1CCCN(C2CCC2)CC1 [Example 110, (2R,4S)-1-Methyl-2-(4-cyclobutyl-[1,4]diazepane-1-carbonyl)-4-(4-fluoro-phenoxy)-pyrrolidine]
- Ki (cloned rat H3 receptors): 477 nM
- Kb (rat H3 receptor): 16.6 nM

SMILES: N#Cc1ccc(O[C@H]2CN[C@H](C(=O)N3CCCN(C4CCC4)CC3)C2)cc1 [Example 94, (2S,4R)-4-(4-Cyano-phenoxy)-2-(4-cyclobutyl-[1,4]diazepane-1-carbonyl)-pyrrolidine]
- Ki (cloned rat H3 receptors): 150 nM
- Kb (rat H3 receptor; [4]): 110 nM

SMILES: CC(C)(C)OC(=O)N1C[C@@H](Oc2ccccc2)C[C@@H]1C(=O)N1CCCN(C2CCC2)CC1 [Example 19, (2R,4S)-2-(4-Cyclobutyl-[1,4]diazepane-1-carbonyl)-4-phenoxy-pyrrolidine-1-carboxylic acid tert-butyl ester]
- Ki [1]: 5 nM
- Ki (human H3 receptor [2]; read-out: Human H3 Ki): 9 nM

SMILES: N#Cc1ccc(O[C@@H]2CN[C@@H](C(=O)N3CCCN(C4CCCC4)CC3)C2)cc1 [Example 83, (2R,4S)-4-(4-Cyano-phenoxy)-2-(4-cyclopentyl-[1,4]diazepane-1-carbonyl)-pyrrolidine]
- Ki (cloned rat H3 receptors): 16 nM
- Rat pA2 (rat H3 receptor; [6]): 8.51

SMILES: CC(C)(C)OC(=O)N1C[C@@H](Oc2cccc(F)c2)C[C@@H]1C(=O)N1CCCN(C2CCC2)CC1 [Example 17, (2R,4S)-2-(4-Cyclobutyl-[1,4]diazepane-1-carbonyl)-4-(3-fluoro-phenoxy)-pyrrolidine-1-carboxylic acid tert-butyl ester]
- Ki [1]: 3 nM
- Ki (human H3 receptor [2]; read-out: Human H3 Ki): 3 nM

SMILES: CC(C)(C)OC(=O)N1C[C@H](O)C[C@H]1C(=O)N1CCN(C2CCC2)CC1 [Example 2, (2S,4R)-2-(4-Cyclobutyl-piperazine-1-carbonyl)-4-hydroxy-pyrrolidine-1-carboxylic acid tert-butyl Ester]
- Ki [1]: > 10000 nM

SMILES: O=C([C@H]1C[C@H](Oc2cccc(Cl)c2)CN1)N1CCCN(C2CCC2)CC1 [Example 68, (2R,4S)-4-(3-chloro-phenoxy)-2-(4-cyclobutyl-[1,4]diazepane-1-carbonyl)-pyrrolidine]
- Rat pA2 (rat H3 receptor; [6]): 8.59
